Test results reported in article PMC10388311, “Innovative Strategy toward Mutant CFTR Rescue in Cystic Fibrosis: Design and Synthesis of Thiadiazole Inhibitors of the E3 Ligase RNF5” (Journal of Medicinal Chemistry, 2023).

Test system: CFBE41o– cells
Test: Apoptosis assay (Hoechst 33342 / propidium iodide, high-content imaging)
Assay type: cell-based, human
Protocol: We performed a preliminary evaluation of the effect of chronic treatment with selected analogues on the proliferation and apoptosis of CFBE41o^– cells (Figure 7). Indeed, RNF5 can modulate cell motility and proliferation by regulating paxillin ubiquitylation and thus its degradation.[53] For the proliferation assay, CFBE41o^– cells stably co-expressing F508del-CFTR and the HS-YFP were treated with test compounds (5 μM), VX-809 (1 μM), or vehicle alone (DMSO) for 48 h. Cell proliferation was then monitored by measuring the area covered by the cells based on the YFP signal. For the apoptosis assay, 24 h after plating, CFBE41o^– cells stably expressing F508del-CFTR were treated with test compounds (5, 20, and 100 μM), VX-809 (1 μM), MG132 (50 μM), or vehicle alone (DMSO) for 24 h. Cell nuclei were then counterstained with Hoechst 33342 and propidium iodide to visualize the total and apoptotic cell count, respectively, and imaged by using an Opera Phenix high-content screening system.
CFBE41o^– cells stably expressing F508del-CFTR and the HS-YFP were plated at a low density (5000 cell/well) on 96-well plates suitable for high-content imaging. […] Cell proliferation was monitored (by exploiting the YFP signal to determine the area covered by cells) for 48 h using the Opera Phenix (PerkinElmer) high-content screening system. […] Data are expressed as means ± SEM, n = 6. […]

## COc1cccc(Cn2c(C)ns/c2=N\C(=N\c2ccccc2)c2ccccc2)c1 [Compound 16, (E)-N-((Z)-4-(3-Methoxybenzyl)-3-methyl-1,2,4-thiadiazol-5(4H)-ylidene)-N′-phenylbenzimidamide]
  effect on cell proliferation and apoptosis (tolerability): good tolerability and no toxic side effects
